According to ChEMBL document CHEMBL1909046, “DrugMatrix in vitro pharmacology data”:

Tested on: not listed separately
Experiment: DRUGMATRIX: ATPase, Na+/K+ enzyme inhibition (substrate: ATP)
Assay type: tissue-based, Sus scrofa, Heart
Conditions: Not Active = under 50% inhibition at 10 µM

Compound	IC50	Ki
COc1ccc2c(c1OC)C(=O)O[C@@H]2[C@H]1c2c(cc3c(c2OC)OCO3)CCN1C [NOSCAPINE]	Not Active	Not Active
NC(=O)N1c2ccccc2CC(=O)c2ccccc21 [OXCARBAZEPINE]	Not Active	Not Active
COc1ccnc(C[S+]([O-])c2nc3ccc(OC(F)F)cc3[nH]2)c1OC (stereo not given) [PANTOPRAZOLE]	Not Active	Not Active
N=C(N)c1ccc(OCCCCCOc2ccc(C(=N)N)cc2)cc1 [PENTAMIDINE]	Not Active	Not Active
NNCCc1ccccc1 [PHENELZINE]	Not Active	Not Active

Target: T1, Vasoactive intestinal polypeptide receptor 1 (Homo sapiens, UniProt P32241); further: in other assays of this panel Not Active means under 50% inhibition at 10 µM
T1 sequence (P32241 whole entry): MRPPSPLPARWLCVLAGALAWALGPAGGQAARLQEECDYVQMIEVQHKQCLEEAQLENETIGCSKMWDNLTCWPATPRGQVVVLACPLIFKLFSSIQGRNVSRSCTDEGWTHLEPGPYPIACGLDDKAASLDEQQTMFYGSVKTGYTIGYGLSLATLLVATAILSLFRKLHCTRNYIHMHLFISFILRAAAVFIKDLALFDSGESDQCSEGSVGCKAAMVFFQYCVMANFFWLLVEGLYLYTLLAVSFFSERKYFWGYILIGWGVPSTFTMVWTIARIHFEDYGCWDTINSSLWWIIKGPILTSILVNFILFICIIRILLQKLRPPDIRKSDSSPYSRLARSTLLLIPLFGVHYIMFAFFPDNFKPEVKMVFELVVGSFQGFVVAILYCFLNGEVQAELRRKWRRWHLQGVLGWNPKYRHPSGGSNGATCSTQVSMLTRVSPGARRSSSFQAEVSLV
Assay type: cell membranes, Membrane
Conditions: ht-29

Compound	IC50
COc1ccc2c(c1OC)C(=O)O[C@@H]2[C@H]1c2c(cc3c(c2OC)OCO3)CCN1C [NOSCAPINE]	Not Active
NC(=O)N1c2ccccc2CC(=O)c2ccccc21 [OXCARBAZEPINE]	Not Active
COc1ccnc(C[S+]([O-])c2nc3ccc(OC(F)F)cc3[nH]2)c1OC (stereo not given) [PANTOPRAZOLE]	Not Active
N=C(N)c1ccc(OCCCCCOc2ccc(C(=N)N)cc2)cc1 [PENTAMIDINE]	Not Active
NNCCc1ccccc1 [PHENELZINE]	Not Active

Target: Nitric oxide synthase 1 (Rattus norvegicus, UniProt P29476); further: in other assays of this panel Not Active means under 50% inhibition at 10 µM
Assay type: tissue-based, Cerebellum
Conditions: not given

Sequence of Nitric oxide synthase 1 (P29476 whole entry): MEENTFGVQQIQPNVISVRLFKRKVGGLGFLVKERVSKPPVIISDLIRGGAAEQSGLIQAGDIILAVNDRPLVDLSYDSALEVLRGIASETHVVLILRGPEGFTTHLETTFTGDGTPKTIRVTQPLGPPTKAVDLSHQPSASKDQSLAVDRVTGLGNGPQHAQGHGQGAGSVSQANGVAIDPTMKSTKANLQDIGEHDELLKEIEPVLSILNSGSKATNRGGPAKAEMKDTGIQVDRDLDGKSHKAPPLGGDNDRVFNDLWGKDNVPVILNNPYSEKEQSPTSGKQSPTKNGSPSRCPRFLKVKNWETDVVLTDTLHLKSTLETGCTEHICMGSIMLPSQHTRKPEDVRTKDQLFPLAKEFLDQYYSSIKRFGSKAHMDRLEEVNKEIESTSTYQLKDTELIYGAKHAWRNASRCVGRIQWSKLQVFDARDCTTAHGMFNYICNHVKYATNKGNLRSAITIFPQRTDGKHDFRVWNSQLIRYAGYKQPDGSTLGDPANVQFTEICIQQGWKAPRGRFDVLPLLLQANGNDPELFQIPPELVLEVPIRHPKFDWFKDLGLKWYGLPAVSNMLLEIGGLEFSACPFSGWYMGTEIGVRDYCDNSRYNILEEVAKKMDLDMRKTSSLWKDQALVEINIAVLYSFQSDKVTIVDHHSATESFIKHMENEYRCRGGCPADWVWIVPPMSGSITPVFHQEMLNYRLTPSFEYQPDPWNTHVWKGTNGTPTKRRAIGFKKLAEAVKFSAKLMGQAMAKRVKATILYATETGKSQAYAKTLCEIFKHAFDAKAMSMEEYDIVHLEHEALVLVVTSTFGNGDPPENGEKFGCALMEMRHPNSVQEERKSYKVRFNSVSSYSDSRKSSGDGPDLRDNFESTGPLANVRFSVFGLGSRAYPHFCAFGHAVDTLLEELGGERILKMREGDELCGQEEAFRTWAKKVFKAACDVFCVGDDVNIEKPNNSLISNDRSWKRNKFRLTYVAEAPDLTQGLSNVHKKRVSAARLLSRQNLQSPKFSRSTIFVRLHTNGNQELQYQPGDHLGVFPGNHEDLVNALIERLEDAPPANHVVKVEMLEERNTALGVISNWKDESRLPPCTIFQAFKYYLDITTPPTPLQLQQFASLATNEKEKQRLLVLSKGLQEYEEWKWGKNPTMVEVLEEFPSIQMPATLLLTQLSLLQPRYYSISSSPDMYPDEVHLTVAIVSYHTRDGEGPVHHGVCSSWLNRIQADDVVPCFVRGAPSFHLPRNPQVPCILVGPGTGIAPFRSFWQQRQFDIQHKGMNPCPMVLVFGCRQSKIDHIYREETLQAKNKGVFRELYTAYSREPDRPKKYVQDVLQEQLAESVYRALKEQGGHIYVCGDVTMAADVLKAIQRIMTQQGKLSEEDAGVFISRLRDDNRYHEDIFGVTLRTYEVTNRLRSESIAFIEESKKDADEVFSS

Compound	IC50
COc1ccc2c(c1OC)C(=O)O[C@@H]2[C@H]1c2c(cc3c(c2OC)OCO3)CCN1C [NOSCAPINE]	Not Active
NC(=O)N1c2ccccc2CC(=O)c2ccccc21 [OXCARBAZEPINE]	Not Active
COc1ccnc(C[S+]([O-])c2nc3ccc(OC(F)F)cc3[nH]2)c1OC (stereo not given) [PANTOPRAZOLE]	Not Active
N=C(N)c1ccc(OCCCCCOc2ccc(C(=N)N)cc2)cc1 [PENTAMIDINE]	Not Active
NNCCc1ccccc1 [PHENELZINE]	Not Active

Target: T2, Progesterone receptor (Bos taurus, UniProt Q690N0)
T2 sequence (Q690N0 whole entry): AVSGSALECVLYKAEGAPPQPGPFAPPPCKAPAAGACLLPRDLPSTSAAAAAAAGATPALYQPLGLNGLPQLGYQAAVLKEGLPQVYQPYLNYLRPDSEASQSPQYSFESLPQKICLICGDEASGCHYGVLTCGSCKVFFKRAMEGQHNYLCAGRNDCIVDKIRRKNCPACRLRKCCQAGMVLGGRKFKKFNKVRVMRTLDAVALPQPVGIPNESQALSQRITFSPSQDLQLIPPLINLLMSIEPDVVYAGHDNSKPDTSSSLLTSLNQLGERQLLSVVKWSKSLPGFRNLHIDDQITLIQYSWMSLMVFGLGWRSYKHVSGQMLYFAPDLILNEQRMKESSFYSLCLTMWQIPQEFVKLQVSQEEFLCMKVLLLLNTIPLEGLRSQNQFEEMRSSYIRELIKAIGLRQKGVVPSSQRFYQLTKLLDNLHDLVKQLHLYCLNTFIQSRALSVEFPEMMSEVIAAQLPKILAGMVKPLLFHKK
Experiment: DRUGMATRIX: Progesterone radioligand binding (ligand: [3H] R-5020)
Assay type: tissue-based, Uterus
Conditions: Not Active = under 50% inhibition at 10 µM

Compound	IC50
COc1ccc2c(c1OC)C(=O)O[C@@H]2[C@H]1c2c(cc3c(c2OC)OCO3)CCN1C [NOSCAPINE]	Not Active
NC(=O)N1c2ccccc2CC(=O)c2ccccc21 [OXCARBAZEPINE]	Not Active
COc1ccnc(C[S+]([O-])c2nc3ccc(OC(F)F)cc3[nH]2)c1OC (stereo not given) [PANTOPRAZOLE]	Not Active
N=C(N)c1ccc(OCCCCCOc2ccc(C(=N)N)cc2)cc1 [PENTAMIDINE]	Not Active
NNCCc1ccccc1 [PHENELZINE]	Not Active

Target: T3, Receptor-type tyrosine-protein phosphatase C (Homo sapiens, UniProt P08575);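 further: inhibition of CD45 enzyme activity measured using DiFMUP as substrate; in other assays of this panel Not Active means under 50% inhibition at 10 µM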
T3 sequence (P08575 whole entry): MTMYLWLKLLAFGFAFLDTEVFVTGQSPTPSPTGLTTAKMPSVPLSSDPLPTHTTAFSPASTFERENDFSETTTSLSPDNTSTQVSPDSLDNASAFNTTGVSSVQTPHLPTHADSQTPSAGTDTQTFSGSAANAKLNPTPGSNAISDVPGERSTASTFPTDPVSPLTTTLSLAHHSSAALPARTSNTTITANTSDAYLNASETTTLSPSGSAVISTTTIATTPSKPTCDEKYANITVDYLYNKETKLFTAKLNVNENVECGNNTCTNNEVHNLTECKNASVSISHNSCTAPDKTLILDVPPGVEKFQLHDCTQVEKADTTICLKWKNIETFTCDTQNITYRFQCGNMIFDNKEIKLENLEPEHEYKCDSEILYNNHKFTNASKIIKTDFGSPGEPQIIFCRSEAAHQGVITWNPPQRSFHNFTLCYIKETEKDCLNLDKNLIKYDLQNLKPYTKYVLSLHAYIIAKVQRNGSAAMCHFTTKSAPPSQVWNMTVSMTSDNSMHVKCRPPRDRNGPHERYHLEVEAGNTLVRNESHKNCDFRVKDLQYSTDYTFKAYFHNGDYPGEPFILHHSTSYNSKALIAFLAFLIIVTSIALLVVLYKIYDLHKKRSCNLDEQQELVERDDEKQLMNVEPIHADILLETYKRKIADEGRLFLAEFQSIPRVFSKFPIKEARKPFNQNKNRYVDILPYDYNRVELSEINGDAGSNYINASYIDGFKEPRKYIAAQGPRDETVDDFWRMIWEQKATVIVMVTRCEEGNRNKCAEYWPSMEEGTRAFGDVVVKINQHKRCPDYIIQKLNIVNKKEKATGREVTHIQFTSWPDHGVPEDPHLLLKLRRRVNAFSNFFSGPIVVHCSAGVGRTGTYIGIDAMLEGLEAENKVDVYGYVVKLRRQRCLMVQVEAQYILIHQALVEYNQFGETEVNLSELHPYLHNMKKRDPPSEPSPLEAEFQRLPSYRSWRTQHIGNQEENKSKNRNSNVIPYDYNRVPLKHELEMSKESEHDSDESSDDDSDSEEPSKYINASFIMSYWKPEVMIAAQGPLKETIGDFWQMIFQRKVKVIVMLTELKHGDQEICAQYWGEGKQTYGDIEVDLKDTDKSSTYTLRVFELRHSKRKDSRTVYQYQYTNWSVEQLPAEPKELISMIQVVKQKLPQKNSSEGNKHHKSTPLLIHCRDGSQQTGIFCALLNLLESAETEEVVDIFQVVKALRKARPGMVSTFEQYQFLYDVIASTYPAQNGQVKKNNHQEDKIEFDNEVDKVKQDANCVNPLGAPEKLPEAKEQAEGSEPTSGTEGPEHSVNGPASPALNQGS
Design: species or system Escherichia coli
Conditions: not given

Compound	IC50
COc1ccc2c(c1OC)C(=O)O[C@@H]2[C@H]1c2c(cc3c(c2OC)OCO3)CCN1C [NOSCAPINE]	Not Active
NC(=O)N1c2ccccc2CC(=O)c2ccccc21 [OXCARBAZEPINE]	Not Active
COc1ccnc(C[S+]([O-])c2nc3ccc(OC(F)F)cc3[nH]2)c1OC (stereo not given) [PANTOPRAZOLE]	Not Active
N=C(N)c1ccc(OCCCCCOc2ccc(C(=N)N)cc2)cc1 [PENTAMIDINE]	Not Active
NNCCc1ccccc1 [PHENELZINE]	Not Active

Target: T4, Cytochrome P450 1A2 (Homo sapiens, UniProt P05177); further: in other assays of this panel Not Active means under 50% inhibition at 10 µM
T4 sequence (P05177 whole entry): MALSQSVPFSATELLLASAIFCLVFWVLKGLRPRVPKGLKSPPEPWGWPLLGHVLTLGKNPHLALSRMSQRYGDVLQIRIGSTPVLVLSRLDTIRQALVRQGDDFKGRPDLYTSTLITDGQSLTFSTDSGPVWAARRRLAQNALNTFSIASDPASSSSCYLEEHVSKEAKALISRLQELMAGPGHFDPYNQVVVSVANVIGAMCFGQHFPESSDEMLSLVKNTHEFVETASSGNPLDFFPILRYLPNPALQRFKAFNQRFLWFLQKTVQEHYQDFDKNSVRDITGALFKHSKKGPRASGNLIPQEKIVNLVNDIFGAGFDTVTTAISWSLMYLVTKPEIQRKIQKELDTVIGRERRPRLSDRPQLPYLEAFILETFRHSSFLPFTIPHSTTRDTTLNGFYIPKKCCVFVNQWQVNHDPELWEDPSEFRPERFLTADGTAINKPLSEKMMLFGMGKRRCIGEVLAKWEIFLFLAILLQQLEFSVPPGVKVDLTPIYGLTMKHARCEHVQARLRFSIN
Conditions: bti-tn-5b1-4

Compound	IC50	Ki
COc1ccc2c(c1OC)C(=O)O[C@@H]2[C@H]1c2c(cc3c(c2OC)OCO3)CCN1C [NOSCAPINE]	Not Active	Not Active
NC(=O)N1c2ccccc2CC(=O)c2ccccc21 [OXCARBAZEPINE]	Not Active	Not Active
COc1ccnc(C[S+]([O-])c2nc3ccc(OC(F)F)cc3[nH]2)c1OC (stereo not given) [PANTOPRAZOLE]	Not Active	Not Active
N=C(N)c1ccc(OCCCCCOc2ccc(C(=N)N)cc2)cc1 [PENTAMIDINE]	Not Active	Not Active
NNCCc1ccccc1 [PHENELZINE]	Not Active	Not Active
